The text below walks through data of patent publication US20020143040A1, “Heterocyclic aromatic oxazole compounds and use thereof” (priority 1994, published 2002).

For one assay, the target named is T1, human cyclooxygenase-2 (Homo sapiens, UniProt P35354).
T1 sequence (P35354 18-604): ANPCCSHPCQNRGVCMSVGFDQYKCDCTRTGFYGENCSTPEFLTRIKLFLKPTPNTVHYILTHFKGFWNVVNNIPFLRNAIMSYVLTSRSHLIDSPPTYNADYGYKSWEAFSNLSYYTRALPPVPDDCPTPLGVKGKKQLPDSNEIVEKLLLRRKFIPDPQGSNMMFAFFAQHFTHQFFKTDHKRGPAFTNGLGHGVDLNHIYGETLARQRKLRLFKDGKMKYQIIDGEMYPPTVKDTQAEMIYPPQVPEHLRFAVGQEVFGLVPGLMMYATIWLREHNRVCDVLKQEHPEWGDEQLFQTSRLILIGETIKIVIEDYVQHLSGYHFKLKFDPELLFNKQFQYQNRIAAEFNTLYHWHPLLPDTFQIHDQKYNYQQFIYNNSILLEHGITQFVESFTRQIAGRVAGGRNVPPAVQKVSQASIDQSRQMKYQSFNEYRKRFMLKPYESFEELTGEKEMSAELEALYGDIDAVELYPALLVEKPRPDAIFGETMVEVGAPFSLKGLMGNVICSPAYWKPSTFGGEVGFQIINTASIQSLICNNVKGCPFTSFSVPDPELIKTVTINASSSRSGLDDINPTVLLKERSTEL
The assay can be described thus: Inhibitory action on cyclooxygenase-2 (conversion of 14C arachidonic acid into PGH2). To be noted: for COX-1/COX-2: ratio of IC50 COX-1 to IC50 COX-2.

In assay [1] the target is cyclooxygenase-1 prepared from human platelets (Homo sapiens, UniProt P23219). The assay can be described thus: Inhibitory action on cyclooxygenase-1 (conversion of 14C arachidonic acid into PGH2). The format is biochemical. Particulars: enzyme prepared from human platelets; preincubation 24° C. 5 minutes; read-out: IC50 (μM) COX-1. An excerpt:
(Inhibitory Action on Cyclooxygenase)
Inhibition (%)=(1−A/B)×100

Assay [2] concerns carrageenin-induced podedema. The assay can be described thus: Effects on carrageenin-induced podedema. The format is in vivo, male Donryu rats. To be noted: p.o. one hour before carrageenin; limb volume 3 hours after carrageenin; dose inhibiting by 30% relative to control group. The method, then:
(Effects on Carrageenin-induced Podedema)
Carrageenin (1%, 0.05 ml) dissolved in physiological saline was subcutaneously injected to the left hindlimb of male Donryu rats to induce podedema. The degree of podedema was evaluated by measuring the volume of the limb 3 hours after carrageenin administration. A test compound (1, 3, 10 or 30 mg/kg) was orally administered one hour before carrageenin administration, and suppression thereby was studied. Inhibitory activity was expressed by the dose (ED30) of the test compound necessary for inhibiting by 30% relative to the control group.
In general terms: The carrageenan paw model is a standard test of acute inflammation.

Read-outs that look alike come from different tables or passages of the source.

Chain of cyclooxygenase-1 prepared from human platelets (P23219 24-599): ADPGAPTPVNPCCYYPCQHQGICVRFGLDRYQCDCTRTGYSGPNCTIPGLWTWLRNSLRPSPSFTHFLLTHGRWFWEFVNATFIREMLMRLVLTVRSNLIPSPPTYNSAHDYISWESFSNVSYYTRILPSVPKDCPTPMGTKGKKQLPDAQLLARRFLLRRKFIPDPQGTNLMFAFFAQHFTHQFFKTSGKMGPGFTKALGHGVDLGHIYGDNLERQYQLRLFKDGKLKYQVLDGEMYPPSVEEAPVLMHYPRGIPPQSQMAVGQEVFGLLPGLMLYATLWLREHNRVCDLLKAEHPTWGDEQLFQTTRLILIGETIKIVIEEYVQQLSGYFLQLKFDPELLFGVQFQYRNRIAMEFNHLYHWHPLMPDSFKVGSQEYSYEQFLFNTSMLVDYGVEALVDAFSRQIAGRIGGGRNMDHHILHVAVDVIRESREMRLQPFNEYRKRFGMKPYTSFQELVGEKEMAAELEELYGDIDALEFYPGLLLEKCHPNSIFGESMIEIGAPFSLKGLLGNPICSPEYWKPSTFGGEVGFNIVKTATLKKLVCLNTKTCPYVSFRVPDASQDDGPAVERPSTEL
Method for human cyclooxygenase-2: The enzymatic activity was determined from the percent conversion of ^14C arachidonic acid into prostaglandin H2 (PGH2) and the decomposed product thereof. That is, a test sample (20 μl), an enzyme solution (20 μl) and distilled water (10 μl) were added to 100 mM Tris-HCl buffer (pH 8, 140 μl) containing hematin (2 μM) and tryptophan (5 mM), and the mixture was thoroughly stirred, which was followed by preincubation at 24° C. for 5 minutes. Then, a ^14C arachidonic acid solution (10 μl) was added and the mixture was reacted at 24° C., whereafter a solution (40 μl) of ethyl ether/methanol/1M citric acid (30/4/1) ice-cooled to −20° C. was added to stop the reaction. The reaction mixture was centrifuged for 5 minutes at 3,000 rpm to give an ether layer which was placed on a thin plate, and developed with ethyl ether/methanol/acetic acid (90/2/0.1) to determine percent conversion (A) from arachidonic acid to PGH2 and the decomposed product thereof.
An enzyme prepared from human platelets was used as an enzyme solution of cyclooxygenase-1, and an enzyme expressed by a yeast, into which cDNA of human cyclooxygenase-2 had been introduced using a kit of Invitrogen Corp., was used as an enzyme solution of cyclooxygenase-2.

As for `Cc1nc(C2CCCCC2)c(-c2cc(F)c(S(N)(=O)=O)c(F)c2)o1` [Example 6], at human cyclooxygenase-2, the COX-1/COX-2 was more than 625.

In general, IC50 refers to the concentration at which inhibition is half-maximal. As for `Cc1nc(C2CCCCC2)c(-c2ccc(S(N)(=O)=O)c(Cl)c2)o1` [Example 4], the IC50 at human cyclooxygenase-2 is more than 10 µM.

Consider `Cc1nc(-c2ccc(F)cc2)c(-c2ccc(S(N)(=O)=O)cc2)o1` [Control 2, reference compound], for which the IC50 worked out at 5 µM in assay [1] and 0.02 µM on human cyclooxygenase-2 (read-out: IC50 (μM) COX-2, enzyme expressed by yeast with cDNA of human cyclooxygenase-2, preincubation 24° C. 5 minutes).

With `Cc1nc(C2CCCCC2)c(-c2ccc(S(N)(=O)=O)c(C)c2)o1` [Example 5], the IC50 against human cyclooxygenase-2 was more than 10 µM.

`Cc1nc(-c2ccc(F)cc2)c(-c2ccc(S(N)(=O)=O)c(F)c2)o1` [Example 7, 5-(4-aminosulfonyl-3-fluorophenyl)-4-(4-fluorophenyl)-2-methyloxazole]: the COX-1/COX-2 at human cyclooxygenase-2 is given as 1,233.

Consider `Cc1nc(C2CCCCC2)c(-c2ccc(S(N)(=O)=O)cc2)o1` [Control 1, reference compound], for which the COX-1/COX-2 at human cyclooxygenase-2 is 643.

Take `COc1ccc2c(c1)c(CC(=O)O)c(C)n2C(=O)c1ccc(Cl)cc1` [Indomethacin, reference compound]: the “carrageenin-induced podedema in rats, ED30 (mg/kg p.o.)” value in assay [2] came out at 2.9 mg/kg.

For `Cc1nc(C2CCCCC2)c(-c2ccc(S(C)(=O)=O)c(F)c2)o1` [Example 3, 4-cyclohexyl-5-(3-fluoro-4-methylsulfonylphenyl)-2-methyloxazole], at human cyclooxygenase-2, the COX-1/COX-2 was more than 333.

On to `Cc1nc(C2CCCCC2)c(-c2ccc(S(N)(=O)=O)c(F)c2)o1` [Example 2, 5-(4-aminosulfonyl-3-fluorophenyl)-4-cyclohexyl-2-methyloxazole], for which the IC50 in assay [1] is more than 100 µM. Further, the COX-1/COX-2 at human cyclooxygenase-2 was >1,428. Further, the “carrageenin-induced podedema in rats, ED30 (mg/kg p.o.)” value in assay [2] amounted to 5.5 mg/kg.
